The record followed here is patent US8361487B1, “Ant controllers and method for application thereof” (BASF Aktiengesellschaft, priority 1999, dated 2013).

The subject of the first test is fireant (Solenopsis geminata). Nature of the test: Test Example 2: drench treatment of fireant nests. Format: in vivo. Also on record: key: A: Nest is completely destructed or activity of the nest is extremely low.; B: Activity of the nest is exhibited.; C: High activity of the nest is exhibited.; D: Activity of the nest is extremely high. The settings on record: 1 g of the active ingredient per one nest, 14 days after the treatment. The procedure: The ant controller of the present invention was applied to nests (anthill) of fireant (Solenopsis geminata) with drench treatment, in terms of 1 g of the active ingredient per one nest. 14 Days after the treatment of the ant controller, the activity of the nests was evaluated according to the following criterion. The test was carried out with one block per one nest.
`N#Cc1ccc(CC(=NNC(=O)Nc2ccc(OC(F)(F)F)cc2)c2cccc(C(F)(F)F)c2)cc1` [Compound 44]: the “activity of the nests (effect)” value is given as “A”.
Consider `N#Cc1ccc(CC(NNC(=O)Nc2ccc(OC(F)(F)F)cc2)c2cccc(C(F)(F)F)c2)cc1` (stereo not shown) [Compound 96], for which the “activity of the nests (effect)” value was “A”.

For another test, the system named is Coptotermes formosanus Shiraki. Nature of the test: Test Example 1: termite-killing test on treated filter paper. Format: in vivo. The settings on record: mortality class; 1 ml of a 500 ppm solution on filter paper, seven days after inoculation, triplicate group of 10 insects. As for the experimental part: A filter paper was spread in a glass dish having a diameter of 9 cm, onto which was dropped 1 ml of a 500 ppm solution of the ant controller of the present invention. Then, the filter paper was inoculated with Coptotermes formosanus Shiraki. Seven days after the inoculation, percentage of dead insects was investigated, from which mortality was calculated. The test was carried out with triplicate group of 10 insects.
On to `N#Cc1ccc(CC(=NNC(=O)Nc2ccc(OC(F)(F)F)cc2)c2cccc(C(F)(F)F)c2)cc1` [Compound 44], for which the Termite-killing effect entry is “C (89-80)”.
`N#Cc1ccc(CC(NNC(=O)Nc2ccc(OC(F)(F)F)cc2)c2cccc(C(F)(F)F)c2)cc1` (stereo not shown) [Compound 96]: the Termite-killing effect entry is given as “A (100)”.
The same measure, in the same setting: in the case of `N#Cc1ccc(CN(N=CC(=O)Nc2ccc(Cl)cc2)c2cccc(C(F)(F)F)c2)cc1` [Compound 138] it was “A (100)”; in that of `N#Cc1ccc(CN(N=CC(=O)Nc2ccc(OC(F)(F)F)cc2)c2cccc(C(F)(F)F)c2)cc1` [Compound 139], “A (100)”.
With `CC(=NN(Cc1ccc(C#N)cc1)c1cccc(Cl)c1)C(=O)Nc1ccc(OC(F)(F)F)cc1` [Compound 140], the Termite-killing effect result was “A (100)”.
Same read-out and setting: the value for `CN(C(=O)C=NN(Cc1ccc(C#N)cc1)c1cccc(C(F)(F)F)c1)c1ccc(Cl)cc1` [Compound 141] was “D (79-50)”.
For `N#Cc1ccccc1CN(N=CC(=O)Nc1ccc(OC(F)(F)F)cc1)c1cccc(Cl)c1` [Compound 142], the Termite-killing effect result is reported as “C (89-80)”.
For the compound `O=C(CNN(Cc1ccccc1)c1ccccc1)Nc1ccc(OC(F)(F)F)cc1` [Compound 143], the Termite-killing effect entry was “C (89-80)”.
For `O=C(CNN(Cc1ccc(Cl)cc1)c1ccccc1)Nc1ccc(OC(F)(F)F)cc1` [Compound 144], the Termite-killing effect result is “B (99-90)”.
Turning to `N#Cc1ccc(CN(NCC(=O)Nc2ccc(Cl)cc2)c2ccccc2)cc1` [Compound 145], the Termite-killing effect result is given as “A (100)”.
`N#Cc1ccc(CN(NCC(=O)Nc2ccc(OC(F)(F)F)cc2)c2ccccc2)cc1` [Compound 146]: the Termite-killing effect result is recorded as “D (79-50)”.
As to `O=C(CNN(Cc1ccc(Cl)cc1)c1cccc(Cl)c1)Nc1ccc(Cl)cc1` [Compound 147], the Termite-killing effect result is listed as “A (100)”.
For `O=C(CNN(Cc1ccc(Cl)cc1)c1cccc(Cl)c1)Nc1ccc(OC(F)(F)F)cc1` [Compound 148], the Termite-killing effect result is “A (100)”.
Consider `O=C(CNN(Cc1ccc([N+](=O)[O-])cc1)c1cccc(Cl)c1)Nc1ccc(Cl)cc1` [Compound 149], for which the Termite-killing effect result is reported as “A (100)”.
Same read-out and setting: in the case of `O=C(CNN(Cc1ccc([N+](=O)[O-])cc1)c1cccc(Cl)c1)Nc1ccc(OC(F)(F)F)cc1` [Compound 150] it was “C (89-80)”; in that of `N#Cc1ccc(CN(NCC(=O)Nc2ccc(Cl)cc2)c2cccc(Cl)c2)cc1` [Compound 151], “C (89-80)”; in that of `N#Cc1ccc(CN(NCC(=O)Nc2ccc(OC(F)(F)F)cc2)c2cccc(Cl)c2)cc1` [Compound 152], “B (99-90)”.
Consider `N#Cc1ccc(CN(NCC(=O)Nc2ccc(Cl)cc2)c2cccc(F)c2)cc1` [Compound 153], for which the Termite-killing effect result is listed as “A (100)”.
For `N#Cc1ccc(CN(NCC(=O)Nc2ccc(OC(F)(F)F)cc2)c2cccc(F)c2)cc1` [Compound 154], the Termite-killing effect result is “B (99-90)”.
For `Cc1cccc(N(Cc2ccc(C#N)cc2)NCC(=O)Nc2ccc(Cl)cc2)c1` [Compound 155], the Termite-killing effect result is reported as “A (100)”.
With `Cc1cccc(N(Cc2ccc(C#N)cc2)NCC(=O)Nc2ccc(OC(F)(F)F)cc2)c1` [Compound 156], the Termite-killing effect entry was “B (99-90)”.
On to `N#Cc1ccc(CN(NCC(=O)Nc2ccc(Cl)cc2)c2cccc(C(F)(F)F)c2)cc1` [Compound 157], for which the Termite-killing effect entry is listed as “A (100)”.
On to `N#Cc1ccc(CN(NCC(=O)Nc2ccc(OC(F)(F)F)cc2)c2cccc(C(F)(F)F)c2)cc1` [Compound 158], for which the Termite-killing effect result is “C (89-80)”.
